This note sets out measurements from article PMC11625940, “An Improved Test Method for Assaying the Inhibition of Bioflavonoids on Xanthine Oxidase Activity in vitro” (ChemistryOpen, 2024).

Test [1] concerns the target T1, Xanthine oxidase (XOD).
T1 construct: gene XDH; described in the introduction as a 290 kDa homodimer of mammals; the high specific activity could also fit a microbial enzyme
Nature of the test: UV assay of uric acid formation at […] nm, test method A (inhibitor preincubated with enzyme, started by xanthine). In kind it is biochemical. As to conditions: xanthine substrate, sodium pyrophosphate buffer pH 7.5, 37 °C, other methods (B; C, inhibitor added to the running reaction with superoxide) also printed in the row, read-out: IC50 ^[a]/μmol L^-1.

Test [2] has as its target T1, Xanthine oxidase (XOD). Nature of the test: UV assay of uric acid formation at […] nm, test method C (inhibitor added to running reaction after […] min, superoxide present). Format: biochemical. The following applies: xanthine substrate, sodium pyrophosphate buffer pH 7.5, 37 °C, unreliable: compound may be oxidised to myricetin by superoxide, no IC50 reached in test methods A and B.

As for `O=c1cc(-c2ccc(O)c(O)c2)oc2cc(O)cc(O)c12` [Luteolin], the IC50 on Xanthine oxidase (XOD) [1] amounted to 4.34 µM.

As to `O=C1c2c(O)cc(O)cc2O[C@H](c2cc(O)c(O)c(O)c2)[C@H]1O` [Dihydromyricetin], the “IC50 ^[c]/μmol L^-1” value against Xanthine oxidase (XOD) [2] is 20.96 µM.

As to `O=c1c(O)c(-c2cc(O)c(O)c(O)c2)oc2cc(O)cc(O)c12` [Myricetin], the IC50 at Xanthine oxidase (XOD) [1] was 5 µM.
